Literature values in patent CN111214447A, “一种甲磺酸沙芬酰胺固体组合物及其制备方法” (Beijing Wanquan Dezhong Medical Biological Technology Co Ltd, priority 2018, dated 2020).
Values after ≈ are worked out from the molar mass of the structure shown.

Settings: aqueous medium, pH=7

C[C@H](NCc1ccc(OCc2cccc(F)c2)cc1)C(N)=O [沙芬酰胺, 甲磺酸]
solubility: 10 µg/mL (≈ 33.1 µM)
